In PubChem BioAssay (NCI):
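A five-concentration, 48-hour dose response in 96-well plates underlies each endpoint, interpolated linearly between surrounding concentrations. GI50 is the concentration that inhibits growth by half. TGI marks complete inhibition of growth.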

Legend:
Assay in all cases: inhibition of tumour cell growth, NCI panel, 48 h
HOP-62 NSCLC = system: HOP-62 NSCLC
ACHN renal = system: ACHN renal
786-0 renal = system: 786-0 renal
IGROV1 ovarian = system: IGROV1 ovarian
SR leukemia = system: SR leukemia
SK-MEL-2 melanoma = system: SK-MEL-2 melanoma
K-562 leukemia = system: K-562 leukemia
OVCAR-4 ovarian = system: OVCAR-4 ovarian
RXF 393 renal = system: RXF 393 renal
MDA-MB-231 breast = system: MDA-MB-231 breast

COc1cc2c(c(OC)c1OC)-c1[nH]ncc1CC2
TGI (HOP-62 NSCLC): > 100 µM
TGI (ACHN renal): > 100 µM
TGI (786-0 renal): > 100 µM
TGI (IGROV1 ovarian): > 100 µM
TGI (SR leukemia): > 100 µM
TGI (SK-MEL-2 melanoma): > 100 µM
TGI (K-562 leukemia): > 100 µM

O=c1ccccc2cccc(O)c12
TGI (HOP-62 NSCLC): > 100 µM
TGI (ACHN renal): > 100 µM
TGI (OVCAR-4 ovarian): > 100 µM
TGI (786-0 renal): > 100 µM
TGI (IGROV1 ovarian): > 100 µM
TGI (K-562 leukemia): > 100 µM
TGI (RXF 393 renal): > 100 µM

O=C1CCCC/C1=C/C=C/c1ccccc1
TGI (ACHN renal): > 100 µM
TGI (OVCAR-4 ovarian): > 100 µM
TGI (786-0 renal): > 100 µM
TGI (IGROV1 ovarian): > 100 µM
TGI (SK-MEL-2 melanoma): > 100 µM
TGI (K-562 leukemia): > 100 µM
TGI (RXF 393 renal): > 100 µM

COC(=O)CCC(=O)c1c(C)[nH]c(/C=C2\N=C(c3ccc[nH]3)C=C2OC)c1C
GI50 (HOP-62 NSCLC): 0.85 µM
TGI (HOP-62 NSCLC): 2.33 µM
GI50 (ACHN renal): 0.783 µM
TGI (ACHN renal): 4.18 µM
GI50 (OVCAR-4 ovarian): 2.12 µM
TGI (OVCAR-4 ovarian): 17 µM
GI50 (MDA-MB-231 breast): 0.385 µM
TGI (MDA-MB-231 breast): 2.64 µM
GI50 (786-0 renal): 0.552 µM
TGI (786-0 renal): 1.82 µM
GI50 (IGROV1 ovarian): 0.365 µM
TGI (IGROV1 ovarian): 1.6 µM
GI50 (SK-MEL-2 melanoma): 0.349 µM
TGI (SK-MEL-2 melanoma): 1.74 µM
GI50 (K-562 leukemia): 1.24 µM
TGI (K-562 leukemia): 3.18 µM
GI50 (RXF 393 renal): 1.46 µM
TGI (RXF 393 renal): 4.03 µM

Nc1ccc(Nc2nc(F)nc(-c3c4ccccc4c4n3CCS4)n2)cc1
TGI (HOP-62 NSCLC): 31.3 µM
TGI (ACHN renal): 25.3 µM
TGI (OVCAR-4 ovarian): 29.4 µM
TGI (786-0 renal): 32 µM
TGI (IGROV1 ovarian): 29.9 µM
TGI (SK-MEL-2 melanoma): 29.3 µM
TGI (RXF 393 renal): 43.3 µM

COc1ccc(-c2n[nH]nc2-c2csc3ccccc23)cc1OC
GI50 (HOP-62 NSCLC): 2.18 µM
TGI (HOP-62 NSCLC): 24.3 µM
GI50 (ACHN renal): 3.94 µM
TGI (ACHN renal): 76 µM
GI50 (OVCAR-4 ovarian): 6.33 µM
TGI (OVCAR-4 ovarian): > 100 µM
GI50 (MDA-MB-231 breast): 3.21 µM
TGI (MDA-MB-231 breast): 35.5 µM
GI50 (786-0 renal): 3.26 µM
TGI (786-0 renal): 22.6 µM
GI50 (IGROV1 ovarian): 4.21 µM
TGI (IGROV1 ovarian): > 100 µM
GI50 (SK-MEL-2 melanoma): 1.44 µM
TGI (SK-MEL-2 melanoma): 7.65 µM
GI50 (K-562 leukemia): 0.516 µM
TGI (K-562 leukemia): > 100 µM
GI50 (RXF 393 renal): 2.11 µM
TGI (RXF 393 renal): 6.71 µM

COc1ccc2[nH]cc(-c3nc(-c4cn(C)c5ccncc45)cs3)c2c1
GI50 (HOP-62 NSCLC): 1.92 µM
TGI (HOP-62 NSCLC): 3.63 µM
GI50 (ACHN renal): 1.82 µM
TGI (ACHN renal): 3.21 µM
GI50 (OVCAR-4 ovarian): 2.14 µM
TGI (OVCAR-4 ovarian): 4.51 µM
GI50 (MDA-MB-231 breast): 1.87 µM
TGI (MDA-MB-231 breast): 3.4 µM
GI50 (786-0 renal): 1.54 µM
TGI (786-0 renal): 2.9 µM
GI50 (IGROV1 ovarian): 1.93 µM
TGI (IGROV1 ovarian): 3.54 µM
GI50 (SK-MEL-2 melanoma): 15.8 µM
TGI (SK-MEL-2 melanoma): 30.1 µM
GI50 (RXF 393 renal): 1.83 µM
TGI (RXF 393 renal): 3.34 µM

Cc1c(C(=O)/C=C/c2ccc(Cl)cc2)[n+](=O)c2ccccc2n1[O-]
TGI (HOP-62 NSCLC): 63.5 µM
TGI (ACHN renal): 29.6 µM
TGI (OVCAR-4 ovarian): 28.3 µM
TGI (786-0 renal): 27.4 µM
TGI (IGROV1 ovarian): 39.4 µM
TGI (SR leukemia): 73.1 µM
TGI (K-562 leukemia): 52.9 µM
TGI (RXF 393 renal): 17.9 µM

Nc1ccc2c(c1)C(=O)c1c(F)cccc1-2
TGI (HOP-62 NSCLC): > 100 µM
TGI (ACHN renal): > 100 µM
TGI (MDA-MB-231 breast): > 100 µM
TGI (786-0 renal): > 100 µM
TGI (SK-MEL-2 melanoma): > 100 µM
TGI (RXF 393 renal): > 100 µM

N#Cc1ccccc1C#C/C=C\C#Cc1ccc(OCCCNC(=O)c2cc3ccccc3[nH]2)cc1
GI50 (HOP-62 NSCLC): 14.9 µM
TGI (HOP-62 NSCLC): 31.1 µM
GI50 (ACHN renal): 16.9 µM
TGI (ACHN renal): 34.9 µM
GI50 (OVCAR-4 ovarian): 59 µM
TGI (OVCAR-4 ovarian): > 100 µM
GI50 (MDA-MB-231 breast): 13.3 µM
TGI (MDA-MB-231 breast): 28.1 µM
GI50 (786-0 renal): 16.1 µM
TGI (786-0 renal): 40.5 µM
GI50 (IGROV1 ovarian): 14.1 µM
TGI (IGROV1 ovarian): 33.7 µM
GI50 (SK-MEL-2 melanoma): 20.5 µM
TGI (SK-MEL-2 melanoma): 44.6 µM
GI50 (K-562 leukemia): 3.2 µM
TGI (K-562 leukemia): 19 µM
GI50 (RXF 393 renal): 21.4 µM
TGI (RXF 393 renal): 52.2 µM

Cn1c(CCC#N)nc2ccc(Br)cc2c1=O
TGI (HOP-62 NSCLC): > 100 µM
TGI (ACHN renal): > 100 µM
TGI (OVCAR-4 ovarian): > 100 µM
TGI (786-0 renal): > 100 µM
TGI (IGROV1 ovarian): > 100 µM
TGI (SK-MEL-2 melanoma): > 100 µM
TGI (K-562 leukemia): > 100 µM
TGI (RXF 393 renal): > 100 µM

CC(=O)O[C@@H]1CO[C@H]2O[C@H]3[C@@H](C(C=O)=C[C@H](O)[C@@H]4C5=C(C(C)C)CC[C@]5(C)CC[C@@]34C)[C@@]2(O)C1=O
TGI (HOP-62 NSCLC): 1.82 µM
TGI (ACHN renal): 0.281 µM
TGI (OVCAR-4 ovarian): 0.943 µM
TGI (MDA-MB-231 breast): 0.407 µM
TGI (786-0 renal): 0.253 µM
TGI (IGROV1 ovarian): 0.714 µM
TGI (SK-MEL-2 melanoma): 0.596 µM
TGI (K-562 leukemia): 0.368 µM
TGI (RXF 393 renal): 0.362 µM

COc1ccc2c(c1)CC[C@@H]1[C@@H]2CC[C@@]2(C)[C@H]1CC1(CCCCC1)[C@@H]2O
GI50 (HOP-62 NSCLC): 18.3 µM
TGI (HOP-62 NSCLC): 34.3 µM
GI50 (ACHN renal): 14.7 µM
TGI (ACHN renal): 28.2 µM
GI50 (OVCAR-4 ovarian): 13.9 µM
TGI (OVCAR-4 ovarian): 28.7 µM
GI50 (MDA-MB-231 breast): 12.9 µM
TGI (MDA-MB-231 breast): 32.8 µM
GI50 (786-0 renal): 3.81 µM
TGI (786-0 renal): 14.7 µM
GI50 (IGROV1 ovarian): 30.9 µM
TGI (IGROV1 ovarian): 80.7 µM
GI50 (SK-MEL-2 melanoma): 20.4 µM
TGI (SK-MEL-2 melanoma): 41.6 µM
GI50 (RXF 393 renal): 4.68 µM
TGI (RXF 393 renal): 29.2 µM

O=C(OCCOCBr)c1ccccc1
TGI (HOP-62 NSCLC): > 100 µM
TGI (ACHN renal): > 100 µM
TGI (OVCAR-4 ovarian): > 100 µM
TGI (786-0 renal): > 100 µM
TGI (IGROV1 ovarian): > 100 µM
TGI (SR leukemia): > 100 µM
TGI (SK-MEL-2 melanoma): > 100 µM
TGI (K-562 leukemia): > 100 µM

COc1ccc(C(c2ccc(C(C)C)cc(=O)c2O)c2c(O)cc3oc(-c4ccccc4)cc(=O)c3c2O)cc1 (configuration not stated)
TGI (HOP-62 NSCLC): 9.67 µM
TGI (ACHN renal): 45.6 µM
TGI (OVCAR-4 ovarian): 23 µM
TGI (786-0 renal): 14.1 µM
TGI (IGROV1 ovarian): 24.4 µM
TGI (K-562 leukemia): 64.3 µM
TGI (RXF 393 renal): 34.2 µM

COc1cnc2c(c1)C(=O)c1c-2n(CCCn2ccnc2)c(=O)c2cc(Cl)ccc12
GI50 (HOP-62 NSCLC): 0.0211 µM
TGI (HOP-62 NSCLC): 0.0879 µM
GI50 (ACHN renal): 0.0301 µM
TGI (ACHN renal): 61.4 µM
GI50 (OVCAR-4 ovarian): 0.362 µM
TGI (OVCAR-4 ovarian): > 100 µM
GI50 (MDA-MB-231 breast): 1.27 µM
TGI (MDA-MB-231 breast): > 100 µM
GI50 (786-0 renal): 0.0262 µM
TGI (786-0 renal): 0.0823 µM
GI50 (SK-MEL-2 melanoma): 0.574 µM
TGI (SK-MEL-2 melanoma): 14.3 µM
GI50 (K-562 leukemia): 0.0347 µM
TGI (K-562 leukemia): > 100 µM
GI50 (RXF 393 renal): 0.0407 µM
TGI (RXF 393 renal): 0.235 µM

O=C(O)/C(=C/c1ccccc1[N+](=O)[O-])c1ccccc1
TGI (HOP-62 NSCLC): > 100 µM
TGI (ACHN renal): > 100 µM
TGI (OVCAR-4 ovarian): > 100 µM
TGI (786-0 renal): > 100 µM
TGI (IGROV1 ovarian): > 100 µM
TGI (SR leukemia): > 100 µM
TGI (SK-MEL-2 melanoma): > 100 µM
TGI (K-562 leukemia): > 100 µM

C=CC1CC12C(=O)C1OC2(C)C2C(=O)c3c(ccc4c3ccc3ccccc34)C(=O)C12 (configuration not stated)
GI50 (HOP-62 NSCLC): > 100 µM
TGI (HOP-62 NSCLC): > 100 µM
GI50 (ACHN renal): 27.5 µM
TGI (ACHN renal): 88.1 µM
GI50 (OVCAR-4 ovarian): > 100 µM
TGI (OVCAR-4 ovarian): > 100 µM
GI50 (MDA-MB-231 breast): 39.1 µM
TGI (MDA-MB-231 breast): > 100 µM
GI50 (786-0 renal): 38.8 µM
TGI (786-0 renal): > 100 µM
GI50 (SK-MEL-2 melanoma): > 100 µM
TGI (SK-MEL-2 melanoma): > 100 µM
GI50 (K-562 leukemia): 26.1 µM
TGI (K-562 leukemia): > 100 µM
GI50 (RXF 393 renal): 25 µM
TGI (RXF 393 renal): 83 µM

CCN(CC)CCOc1ccc(/C=C2\CC3C4CCC5=CC(=O)CC[C@]5(C)C4CC[C@]3(C)C2=O)cc1OC (some centres not stated)
GI50 (HOP-62 NSCLC): 2.5 µM
TGI (HOP-62 NSCLC): 6.37 µM
GI50 (ACHN renal): 3.05 µM
GI50 (OVCAR-4 ovarian): 10.6 µM
TGI (OVCAR-4 ovarian): > 100 µM
GI50 (MDA-MB-231 breast): 2.55 µM
TGI (MDA-MB-231 breast): 6.17 µM
GI50 (786-0 renal): 2.18 µM
TGI (786-0 renal): 4.61 µM
GI50 (IGROV1 ovarian): 22.7 µM
TGI (IGROV1 ovarian): > 100 µM
GI50 (SK-MEL-2 melanoma): 9.01 µM
TGI (SK-MEL-2 melanoma): > 100 µM
GI50 (K-562 leukemia): 3.14 µM
TGI (K-562 leukemia): > 100 µM
GI50 (RXF 393 renal): 1.85 µM
TGI (RXF 393 renal): 4.56 µM
